target: T1, aurora-A (human) (Homo sapiens, UniProt O14965); assay: Aurora-A (human) kinase assay; assay type: biochemical; details: read-out: Activity (Aurora A activity, IC50 grading)
T1 construct: purchased Upstate, Dundee, UK
T1 sequence (O14965 1-403): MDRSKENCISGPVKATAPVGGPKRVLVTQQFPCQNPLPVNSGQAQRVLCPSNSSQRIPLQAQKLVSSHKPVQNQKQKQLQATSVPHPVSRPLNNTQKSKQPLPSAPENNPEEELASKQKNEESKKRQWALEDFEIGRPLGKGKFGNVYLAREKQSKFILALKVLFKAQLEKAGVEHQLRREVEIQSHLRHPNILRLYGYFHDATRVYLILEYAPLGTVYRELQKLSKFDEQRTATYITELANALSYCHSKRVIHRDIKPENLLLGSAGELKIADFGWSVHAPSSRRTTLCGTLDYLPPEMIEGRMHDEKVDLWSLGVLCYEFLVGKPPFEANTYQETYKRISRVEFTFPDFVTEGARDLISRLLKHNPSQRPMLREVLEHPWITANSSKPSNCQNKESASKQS
How it was run: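 Radiometric assay measuring [γ-32P] transfer from 100 μM ATP to 500 μM Kemptide by 2-5 ng active human aurora-A, pH 7.5 buffer, 30 min at 30° C. Incorporated label captured on P81 filters and counted by scintillation; IC50 from curve fitting.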

Structure (SMILES) | IC50 [nM]
Cc1c(-c2ccnc(Nc3ccc(-n4cccc4)cc3)n2)c(C)n2c1C(=O)NCC2 [Example I-74, 6,8-Dimethyl-7-[2-(4-pyrrol-1-yl-phenylamino)-pyrimidin-4-yl]-3,4-dihydro-2H-pyrrolo[1,2-a]pyrazin-1-one] | < 1000
CNc1ccc(Nc2nccc(-c3c(C)c4n(c3C)CCNC4=O)n2)cc1OC [Example I-76, 7-[2-(3-Methoxy-4-methylamino-phenylamino)-pyrimidin-4-yl]-6,8-dimethyl-3,4-dihydro-2H-pyrrolo[1,2-a]pyrazin-1-one] | < 1000
Cc1c(-c2ccnc(Nc3ccc(-c4cccnc4)cc3)n2)c(C)n2c1C(=O)NCC2 [Example I-78, 6,8-Dimethyl-7-[2-(4-pyridin-3-yl-phenylamino)-pyrimidin-4-yl]-3,4-dihydro-2H-pyrrolo[1,2-a]pyrazin-1-one] | < 1000
Cc1cc(C)n(-c2ccc(Nc3nccc(-c4c(C)c5n(c4C)CCNC5=O)n3)cc2)n1 [Example I-80, 7-{2-[4-(3,5-Dimethyl-pyrazol-1-yl)-phenylamino]-pyrimidin-4-yl}-6,8-dimethyl-3,4-dihydro-2H-pyrrolo[1,2-a]pyrazin-1-one] | < 1000
CCOC(=O)c1cnn(-c2ccc(Nc3nccc(-c4c(C)c5n(c4C)CCNC5=O)n3)cc2)c1C [Example I-81, 1-{4-[4-(6,8-Dimethyl-1-oxo-1,2,3,4-tetrahydro-pyrrolo[1,2-a]pyrazin-7-yl)-pyrimidin-2-ylamino]-phenyl}-5-methyl-1H-pyrazole-4-carboxylic acid ethyl ester] | < 1000
COc1ccc(Nc2nccc(-c3c(C)c4n(c3C)CCNC4=O)n2)c(OC)c1 [Example I-85, 7-[2-(2,4-Dimethoxy-phenylamino)-pyrimidin-4-yl]-6,8-dimethyl-3,4-dihydro-2H-pyrrolo[1,2-a]pyrazin-1-one] | < 10000
Cc1c(-c2ccnc(Nc3ccc(F)cc3Cl)n2)c(C)n2c1C(=O)NCC2 [Example I-86, 7-[2-(2-Chloro-4-fluoro-phenylamino)-pyrimidin-4-yl]-6,8-dimethyl-3,4-dihydro-2H-pyrrolo[1,2-a]pyrazin-1-one] | < 10000
COc1ccc(Cl)cc1Nc1nccc(-c2c(C)c3n(c2C)CCNC3=O)n1 [Example I-87, 7-[2-(5-Chloro-2-methoxy-phenylamino)-pyrimidin-4-yl]-6,8-dimethyl-3,4-dihydro-2H-pyrrolo[1,2-a]pyrazin-1-one] | < 10000

Next, values leading:

IC50 [nM] | Structure (SMILES)
< 100 | Cc1c(-c2ccnc(Nc3ccc(-c4cn5c(n4)SCC5)cc3)n2)c(C)n2c1C(=O)NCC2 [Example I-75, 7-{2-[4-(2,3-Dihydro-imidazo[2,1-b]thiazol-6-yl)-phenylamino]-pyrimidin-4-yl}-6,8-dimethyl-3,4-dihydro-2H-pyrrolo[1,2-a]pyrazin-1-one]
< 1000 | Cc1c(-c2ccnc(Nc3ccc(C#N)cc3)n2)c(C)n2c1C(=O)NCC2 [Example I-77, 4-[4-(6,8-Dimethyl-1-oxo-1,2,3,4-tetrahydro-pyrrolo[1,2-a]pyrazin-7-yl)-pyrimidin-2-ylamino]-benzonitrile]
< 1000 | Cc1c(-c2ccnc(Nc3ccc(-c4nncn4C)cc3)n2)c(C)n2c1C(=O)NCC2 [Example I-79, 6,8-Dimethyl-7-{2-[4-(4-methyl-4H-[1,2,4]triazol-3-yl)-phenylamino]-pyrimidin-4-yl}-3,4-dihydro-2H-pyrrolo[1,2-a]pyrazin-1-one]
< 100 | Cc1c(-c2ccnc(Nc3ccc(-c4ccno4)cc3)n2)c(C)n2c1C(=O)NCC2 [Example I-82, 7-[2-(4-Isoxazol-5-yl-phenylamino)-pyrimidin-4-yl]-6,8-dimethyl-3,4-dihydro-2H-pyrrolo[1,2-a]pyrazin-1-one]
< 1000 | Cc1c(-c2ccnc(Nc3ccc(-c4csc(CC(N)=O)n4)cc3)n2)c(C)n2c1C(=O)NCC2 [Example I-83, 2-(4-{4-[4-(6,8-Dimethyl-1-oxo-1,2,3,4-tetrahydro-pyrrolo[1,2-a]pyrazin-7-yl)-pyrimidin-2-ylamino]-phenyl}-thiazol-2-yl)-acetamide]
< 1000 | Cc1c(-c2ccnc(Nc3ccc(-c4csc(CC#N)n4)cc3)n2)c(C)n2c1C(=O)NCC2 [Example I-84]

From patent publication US8404692B2, “Pyrimidin-4-yl-3, 4-dihydro-2H-pyrrolo [1,2A] pyrazin-1-one compounds” (Cyclacel Limited, priority 2005, dated 2013)
